Measured values published in PubChem BioAssay (NCI).
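Cultured in 96-well plates, cells were exposed to test compound for 48 hours across five concentrations. The concentration for full growth arrest is given as TGI.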

Assays:
Experiment in all cases: NCI anticancer screen, dose series, 48 h
[1] = test system: COLO 205 colon
[2] = test system: SK-OV-3 ovarian
[3] = test system: SF-295 CNS
[4] = test system: NCI-H460 lung
[5] = test system: NCI/ADR-RES ovarian
[6] = test system: MCF7 breast
[7] = test system: U251 CNS
[8] = test system: NCI-H226 lung
[9] = test system: KM12 colon
[10] = test system: SK-MEL-2 melanoma
[11] = test system: SK-MEL-5 melanoma
[12] = test system: UACC-257 melanoma
[13] = test system: HCT-15 colon
[14] = test system: MOLT-4 leukemia
[15] = test system: A549 NSCLC
[16] = test system: OVCAR-5 ovarian
[17] = test system: NCI-H23 lung
[18] = test system: BT-549 breast
[19] = test system: HS 578T breast
[20] = test system: MDA-MB-231 breast
[21] = test system: SF-539 CNS
[22] = test system: SNB-19 CNS
[23] = test system: UACC-62 melanoma
[24] = test system: 786-0 renal
[25] = test system: M14 melanoma
[26] = test system: HL-60(TB) leukemia
[27] = test system: MDA-N
[28] = test system: IGROV1 ovarian
[29] = test system: DU-145 prostate
[30] = test system: OVCAR-8 ovarian
[31] = test system: MALME-3M melanoma
[32] = test system: TK-10 renal
[33] = test system: A498 renal
[34] = test system: SR leukemia
[35] = test system: UO-31 renal
[36] = test system: RXF 393 renal
[37] = test system: OVCAR-3 ovarian
[38] = test system: EKVX NSCLC
[39] = test system: ACHN renal
[40] = test system: SK-MEL-28 melanoma
[41] = test system: NCI-H522 lung
[42] = test system: RPMI-8226 leukemia
[43] = test system: CCRF-CEM leukemia
[44] = test system: SF-268 CNS
[45] = test system: HT29 colon
[46] = test system: OVCAR-4 ovarian
[47] = test system: MDA-MB-435
[48] = test system: HOP-62 NSCLC
[49] = test system: T-47D breast
[50] = test system: K-562 leukemia
[51] = test system: HOP-92 NSCLC
[52] = test system: CAKI-1 renal
[53] = test system: HCC-2998 colon
[54] = test system: SN12C renal
[55] = test system: SW-620 colon
[56] = test system: PC-3 prostate
[57] = test system: SNB-75 CNS
[58] = test system: HCT-116 colon
[59] = test system: LOX IMVI melanoma

Compound CCN1CCC(CNC(=O)c2ccc(N)cc2)N1CC (configuration not stated) has a TGI [1] of over 100 µM, a TGI [2] of over 100 µM and a TGI [3] of over 100 µM. For the same compound, the TGI [4] was over 100 µM, the TGI [5] was over 100 µM and the TGI [6] was over 100 µM. For the same compound, the TGI [7] was over 100 µM, the TGI [8] was over 100 µM and the TGI [9] was over 100 µM. The TGI [10] was over 100 µM, the TGI [11] was over 100 µM and the TGI [12] was over 100 µM. For the same compound, the TGI [13] was over 100 µM, the TGI [14] was over 100 µM and the TGI [15] was over 100 µM. The TGI [16] was over 100 µM, the TGI [17] was over 100 µM and the TGI [18] was over 100 µM. It also gave a TGI [19] of over 100 µM, a TGI [20] of over 100 µM and a TGI [21] of over 100 µM. It also gave a TGI [22] of over 100 µM, a TGI [23] of over 100 µM and a TGI [24] of over 100 µM. For the same compound, the TGI [25] was over 100 µM, the TGI [26] was over 100 µM and the TGI [27] was over 100 µM. It also gave a TGI [28] of over 100 µM, a TGI [29] of over 100 µM and a TGI [30] of over 100 µM. For the same compound, the TGI [31] was over 100 µM, the TGI [32] was over 100 µM and the TGI [33] was over 100 µM. It also gave a TGI [34] of over 100 µM, a TGI [35] of over 100 µM and a TGI [36] of over 100 µM. The TGI [37] was over 100 µM, the TGI [38] was over 100 µM and the TGI [39] was over 100 µM. The TGI [40] was over 100 µM, the TGI [41] was over 100 µM and the TGI [42] was over 100 µM. The TGI [43] was over 100 µM, the TGI [44] was over 100 µM and the TGI [45] was over 100 µM. For the same compound, the TGI [46] was over 100 µM, the TGI [47] was over 100 µM and the TGI [48] was over 100 µM. It also gave a TGI [49] of over 100 µM, a TGI [50] of over 100 µM and a TGI [51] of over 100 µM. The TGI [52] was over 100 µM, the TGI [53] was over 100 µM and the TGI [54] was over 100 µM. The TGI [55] was over 100 µM, the TGI [56] was over 100 µM and the TGI [57] was over 100 µM. The TGI [58] was over 100 µM.

In the case of COC1CC(N)C(O)C(C)O1 (configuration not stated), the TGI [1] is reported as over 100 µM, the TGI [2] is reported as over 100 µM and the TGI [3] is reported as over 100 µM. It also gave a TGI [4] of over 100 µM, a TGI [5] of over 100 µM and a TGI [6] of over 100 µM. The TGI [7] was over 100 µM, the TGI [8] was over 100 µM and the TGI [9] was over 100 µM. It also gave a TGI [11] of over 100 µM, a TGI [12] of over 100 µM and a TGI [13] of over 100 µM. It also gave a TGI [14] of over 100 µM, a TGI [16] of over 100 µM and a TGI [17] of over 100 µM. For the same compound, the TGI [18] was over 100 µM, the TGI [19] was over 100 µM and the TGI [20] was over 100 µM. It also gave a TGI [21] of over 100 µM, a TGI [22] of over 100 µM and a TGI [23] of over 100 µM. It also gave a TGI [24] of over 100 µM, a TGI [25] of over 100 µM and a TGI [26] of over 100 µM. It also gave a TGI [27] of over 100 µM, a TGI [28] of over 100 µM and a TGI [29] of over 100 µM. It also gave a TGI [30] of over 100 µM, a TGI [31] of over 100 µM and a TGI [33] of over 100 µM. For the same compound, the TGI [34] was over 100 µM, the TGI [35] was over 100 µM and the TGI [36] was over 100 µM. The TGI [37] was over 100 µM, the TGI [38] was over 100 µM and the TGI [39] was over 100 µM. The TGI [40] was over 100 µM, the TGI [41] was over 100 µM and the TGI [42] was over 100 µM. It also gave a TGI [43] of over 100 µM, a TGI [44] of over 100 µM and a TGI [45] of over 100 µM. The TGI [46] was over 100 µM, the TGI [47] was over 100 µM and the TGI [48] was over 100 µM. The TGI [49] was over 100 µM, the TGI [50] was over 100 µM and the TGI [51] was over 100 µM. It also gave a TGI [52] of over 100 µM, a TGI [53] of over 100 µM and a TGI [54] of over 100 µM. The TGI [55] was over 100 µM, the TGI [56] was over 100 µM and the TGI [57] was over 100 µM. For the same compound, the TGI [59] was over 100 µM and the TGI [58] was over 100 µM.

Compound Br[C@@H]1[C@H]2c3nc4ccccc4nc3[C@@H]1C[C@H]2Br has a TGI [1] of over 100 µM, a TGI [2] of over 100 µM and a TGI [3] of over 100 µM. For the same compound, the TGI [4] was over 100 µM, the TGI [5] was over 100 µM and the TGI [6] was over 100 µM. It also gave a TGI [7] of over 100 µM, a TGI [8] of 86.2 µM and a TGI [9] of over 100 µM. The TGI [11] was 69.5 µM, the TGI [12] was over 100 µM and the TGI [13] was over 100 µM. It also gave a TGI [14] of over 100 µM, a TGI [15] of over 100 µM and a TGI [16] of over 100 µM. The TGI [17] was over 100 µM, the TGI [18] was over 100 µM and the TGI [19] was over 100 µM. It also gave a TGI [20] of over 100 µM, a TGI [22] of over 100 µM and a TGI [23] of over 100 µM. It also gave a TGI [24] of over 100 µM, a TGI [25] of over 100 µM and a TGI [26] of over 100 µM. The TGI [27] was over 100 µM, the TGI [28] was over 100 µM and the TGI [29] was over 100 µM. The TGI [30] was over 100 µM, the TGI [31] was over 100 µM and the TGI [32] was over 100 µM. The TGI [33] was over 100 µM, the TGI [34] was over 100 µM and the TGI [35] was over 100 µM. The TGI [36] was 94.6 µM, the TGI [37] was over 100 µM and the TGI [38] was over 100 µM. For the same compound, the TGI [39] was over 100 µM, the TGI [40] was over 100 µM and the TGI [41] was over 100 µM. It also gave a TGI [43] of over 100 µM, a TGI [44] of over 100 µM and a TGI [45] of over 100 µM. The TGI [46] was over 100 µM, the TGI [47] was over 100 µM and the TGI [48] was over 100 µM. For the same compound, the TGI [49] was over 100 µM, the TGI [50] was over 100 µM and the TGI [51] was over 100 µM. It also gave a TGI [52] of over 100 µM, a TGI [53] of over 100 µM and a TGI [54] of over 100 µM. For the same compound, the TGI [55] was over 100 µM, the TGI [56] was over 100 µM and the TGI [59] was over 100 µM. It also gave a TGI [58] of over 100 µM.

COC(=O)Nc1nc2ccc(S(=O)(=O)N3CCOCC3)cc2[nH]1 showed a TGI [1] of over 100 µM, a TGI [2] of over 100 µM and a TGI [3] of over 100 µM. For the same compound, the TGI [4] was over 100 µM, the TGI [5] was over 100 µM and the TGI [6] was over 100 µM. The TGI [7] was over 100 µM, the TGI [8] was over 100 µM and the TGI [9] was over 100 µM. It also gave a TGI [10] of over 100 µM, a TGI [11] of over 100 µM and a TGI [12] of over 100 µM. The TGI [13] was over 100 µM, the TGI [14] was over 100 µM and the TGI [15] was over 100 µM. For the same compound, the TGI [16] was over 100 µM, the TGI [17] was over 100 µM and the TGI [18] was over 100 µM. The TGI [19] was over 100 µM, the TGI [20] was over 100 µM and the TGI [21] was 31 µM. The TGI [22] was over 100 µM, the TGI [23] was over 100 µM and the TGI [24] was over 100 µM. For the same compound, the TGI [25] was over 100 µM, the TGI [26] was over 100 µM and the TGI [27] was over 100 µM. It also gave a TGI [28] of over 100 µM, a TGI [29] of over 100 µM and a TGI [30] of over 100 µM. The TGI [31] was over 100 µM, the TGI [32] was over 100 µM and the TGI [33] was over 100 µM. It also gave a TGI [34] of over 100 µM, a TGI [35] of over 100 µM and a TGI [36] of over 100 µM. For the same compound, the TGI [37] was over 100 µM, the TGI [38] was over 100 µM and the TGI [39] was over 100 µM. The TGI [40] was over 100 µM, the TGI [41] was over 100 µM and the TGI [42] was over 100 µM. The TGI [43] was over 100 µM, the TGI [44] was over 100 µM and the TGI [45] was over 100 µM. It also gave a TGI [46] of over 100 µM, a TGI [47] of 89.3 µM and a TGI [48] of over 100 µM. The TGI [49] was over 100 µM, the TGI [50] was over 100 µM and the TGI [51] was over 100 µM. For the same compound, the TGI [52] was over 100 µM, the TGI [54] was over 100 µM and the TGI [55] was over 100 µM. It also gave a TGI [56] of over 100 µM, a TGI [57] of over 100 µM and a TGI [59] of over 100 µM. It also gave a TGI [58] of over 100 µM.
